# Measured values as given in US20240043404A1 (AbbVie Inc., priority 2009, published 2024).
# System: RS4;11 cells
# Assay: RS4;11 cell viability assay (CellTiter Glo);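 also: acute lymphoblastic leukemia line RS4,11, EC50 derived from percentage of viable cells after treatment relative to untreated controls, cell killing taken as a measure of Bcl-2 inhibition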
# Assay type: cell-based, human
# Conditions: Homo sapiens, RS4-11, 48 h, 50,000 cells per well, 10% human serum, 48 hours; read-out: RS4; 11 EC50 Values
# Experimental: The acute lymphoblastic leukemia (ALL) cell line RS4;11 was used as the primary human cell line to assess the cellular activity of Bcl-2 selective agents in vitro and their efficacy in vivo.
# Cell cytotoxicity EC50 values were assessed using CellTiter Glo (Promega) according to the manufacturer's recommendations. The EC50 values were determined as a percentage of viable cells following treatment compared to the untreated control cells.
row,SMILES,EC50 [nM]
1,"CC1(C)CCC(CN2CCN(c3ccc(C(=O)NS(=O)(=O)c4cnc(OCC5CCOCC5)c(S(C)(=O)=O)c4)c(Oc4cnc5[nH]ccc5c4)c3)CC2)=C(c2ccc(Cl)cc2)C1 [Example 219, 4-(4-{[2-(4-chlorophenyl)-4,4-dimethylcyclohex-1-en-1-yl]methyl}piperazin-1-yl)-N-{[5-(methylsulfonyl)-6-(tetrahydro-2H-pyran-4-ylmethoxy)pyridin-3-yl]sulfonyl}-2-(1H-pyrrolo[2,3-b]pyridin-5-yloxy)benzamide]",> 1000
2,"CC1(C)CCC(CN2CCN(c3ccc(C(=O)NS(=O)(=O)c4ccc(OCC5(F)CCOCC5)c([N+](=O)[O-])c4)c(Oc4cnc5[nH]ccc5c4)c3)CC2)=C(c2ccc(Cl)cc2)C1 [Example 37, 4-(4-{[2-(4-chlorophenyl)-4,4-dimethylcyclohex-1-en-1-yl]methyl}piperazin-1-yl)-N-({4-[(4-fluorotetrahydro-2H-pyran-4-yl)methoxy]-3-nitrophenyl}sulfonyl)-2-(1H-pyrrolo[2,3-b]pyridin-5-yloxy)benzamide]",1.18
3,"CC1(C)CCC(CN2CCN(c3ccc(C(=O)NS(=O)(=O)c4ccc(NCC5CN(C6CC6)CCO5)c(Cl)c4)c(Oc4cnc5[nH]ccc5c4)c3)CC2)=C(c2ccc(Cl)cc2)C1 (stereo not shown) [Example 332, N-[(3-chloro-4-{[(4-cyclopropylmorpholin-2-yl)methyl]amino}phenyl)sulfonyl]-4-(4-{[2-(4-chlorophenyl)-4,4-dimethylcyclohex-1-en-1-yl]methyl}piperazin-1-yl)-2-(1H-pyrrolo[2,3-b]pyridin-5-yloxy)benzamide]",457
4,"CN1CCC(Nc2ccc(S(=O)(=O)NC(=O)c3ccc(N4CCN(CC5=C(c6ccc(Cl)cc6)CC(C)(C)CC5)CC4)cc3Oc3cccc4[nH]c5ccccc5c34)cc2[N+](=O)[O-])CC1 [Example 7, 2-(9H-carbazol-4-yloxy)-4-(4-{[2-(4-chlorophenyl)-4,4-dimethylcyclohex-1-en-1-yl]methyl}piperazin-1-yl)-N-({4-[(1-methylpiperidin-4-yl)amino]-3-nitrophenyl}sulfonyl)benzamide]",192
5,"COCCOCCN1CCOC(CNc2ccc(S(=O)(=O)NC(=O)c3ccc(N4CCN(CC5=C(c6ccc(Cl)cc6)CC(C)(C)CC5)CC4)cc3Oc3cnc4[nH]ccc4c3)cc2[N+](=O)[O-])C1 (stereo not shown) [Example 213, 4-(4-{[2-(4-chlorophenyl)-4,4-dimethylcyclohex-1-en-1-yl]methyl}piperazin-1-yl)-N-({4-[({4-[2-(2-methoxyethoxy)ethyl]morpholin-2-yl}methyl)amino]-3-nitrophenyl}sulfonyl)-2-(1H-pyrrolo[2,3-b]pyridin-5-yloxy)benzamide]",6.1
6,"CC1(C)CC(c2ccc(Cl)cc2)=C(CN2CCN(c3ccc(C(=O)NS(=O)(=O)c4cnc(OCC5CCOCC5)c(C#N)c4)c(Oc4cnc5[nH]ccc5c4)c3)CC2)CO1 [Example 35, 4-(4-{[4-(4-chlorophenyl)-6,6-dimethyl-5,6-dihydro-2H-pyran-3-yl]methyl}piperazin-1-yl)-N-{[5-cyano-6-(tetrahydro-2H-pyran-4-ylmethoxy)pyridin-3-yl]sulfonyl}-2-(1H-pyrrolo[2,3-b]pyridin-5-yloxy)benzamide]",291
7,"CC1(C)CCC(CN2CCN(c3ccc(C(=O)NS(=O)(=O)c4ccc(N[C@H]5CC[C@@H](NC6CC6)CC5)c([N+](=O)[O-])c4)c(Oc4cnc5[nH]ccc5c4)c3)CC2)=C(c2ccc(Cl)cc2)C1 [Example 122, Cis-4-(4-{[2-(4-chlorophenyl)-4,4-dimethylcyclohex-1-en-1-yl]methyl}piperazin-1-yl)-N-[(4-{[4-(cyclopropylamino)cyclohexyl]amino}-3-nitrophenyl)sulfonyl]-2-(1H-pyrrolo[2,3-b]pyridin-5-yloxy)benzamide]",1.85
8,"CC1(C)CCC(CN2CCN(c3ccc(C(=O)NS(=O)(=O)c4ccc(OCC5COCCN5C(=O)OC(C)(C)C)c([N+](=O)[O-])c4)c(Oc4cnc5[nH]ccc5c4)c3)CC2)=C(c2ccc(Cl)cc2)C1 (stereo not shown) [Example 77, tert-butyl 3-{[4-({[4-(4-{[2-(4-chlorophenyl)-4,4-dimethylcyclohex-1-en-1-yl]methyl}piperazin-1-yl)-2-(1H-pyrrolo[2,3-b]pyridin-5-yloxy)benzoyl]amino}sulfonyl)-2-nitrophenoxy]methyl}morpholine-4-carboxylate]",762
9,"CC(C)c1cc(S(=O)(=O)NC(=O)c2ccc(N3CCN(CC4=C(c5ccc(Cl)cc5)CC(C)(C)CC4)CC3)cc2Oc2cnc3[nH]ccc3c2)cnc1OCC1CCOCC1 [Example 85, 4-(4-{[2-(4-chlorophenyl)-4,4-dimethylcyclohex-1-en-1-yl]methyl}piperazin-1-yl)-N-{[5-isopropyl-6-(tetrahydro-2H-pyran-4-ylmethoxy)pyridin-3-yl]sulfonyl}-2-(1H-pyrrolo[2,3-b]pyridin-5-yloxy)benzamide]",1950
10,"CC1(C)CCC(CN2CCN(c3ccc(C(=O)NS(=O)(=O)c4ccc(OCC5(F)CCN(C6COC6)CC5)c(Cl)c4)c(Oc4cnc5[nH]ccc5c4)c3)CC2)=C(c2ccc(Cl)cc2)C1 [Example 322, N-[(3-chloro-4-{[4-fluoro-1-(oxetan-3-yl)piperidin-4-yl]methoxy}phenyl)sulfonyl]-4-(4-{[2-(4-chlorophenyl)-4,4-dimethylcyclohex-1-en-1-yl]methyl}piperazin-1-yl)-2-(1H-pyrrolo[2,3-b]pyridin-5-yloxy)benzamide]",12.4
11,"CC1(C)CCC(CN2CCN(c3ccc(C(=O)NS(=O)(=O)c4cnc(NCC5CN(C6CC6)CCO5)c(Cl)c4)c(Oc4cnc5[nH]ccc5c4)c3)CC2)=C(c2ccc(Cl)cc2)C1 (stereo not shown) [Example 335, N-[(5-chloro-6-{[(4-cyclopropylmorpholin-2-yl)methyl]amino}pyridin-3-yl)sulfonyl]-4-(4-{[2-(4-chlorophenyl)-4,4-dimethylcyclohex-1-en-1-yl]methyl}piperazin-1-yl)-2-(1H-pyrrolo[2,3-b]pyridin-5-yloxy)benzamide]",270
12,"CC1(C)CCC(CN2CCN(c3ccc(C(=O)NS(=O)(=O)c4ccc(N[C@H]5CCN(CCF)C5)c([N+](=O)[O-])c4)c(Oc4cnc5[nH]ccc5c4)c3)CC2)=C(c2ccc(Cl)cc2)C1 [Example 181, 4-(4-{[2-(4-chlorophenyl)-4,4-dimethylcyclohex-1-en-1-yl]methyl}piperazin-1-yl)-N-[(4-{[(3S)-1-(2-fluoroethyl)pyrrolidin-3-yl]amino}-3-nitrophenyl)sulfonyl]-2-(1H-pyrrolo[2,3-b]pyridin-5-yloxy)benzamide]",106
13,"CC1(C)CCC(CN2CCN(c3ccc(C(=O)NS(=O)(=O)c4ccc(N[C@@H]5CCN(C6COC6)C5)c([N+](=O)[O-])c4)c(Oc4cnc5[nH]ccc5c4)c3)CC2)=C(c2ccc(Cl)cc2)C1 [Example 224, 4-(4-{[2-(4-chlorophenyl)-4,4-dimethylcyclohex-1-en-1-yl]methyl}piperazin-1-yl)-N-[(3-nitro-4-{[(3R)-1-(oxetan-3-yl)pyrrolidin-3-yl]amino}phenyl)sulfonyl]-2-(1H-pyrrolo[2,3-b]pyridin-5-yloxy)benzamide]",13.9
14,"CC1(C)CCC(CN2CCN(c3ccc(C(=O)NS(=O)(=O)c4ccc(OCC5CCOCC5)c(C(N)=O)c4)c(Oc4cnc5[nH]ccc5c4)c3)CC2)=C(c2ccc(Cl)cc2)C1 [Example 38, N-{[3-(aminocarbonyl)-4-(tetrahydro-2H-pyran-4-ylmethoxy)phenyl]sulfonyl}-4-(4-{[2-(4-chlorophenyl)-4,4-dimethylcyclohex-1-en-1-yl]methyl}piperazin-1-yl)-2-(1H-pyrrolo[2,3-b]pyridin-5-yloxy)benzamide]",3510
15,"CN(C)CC(=O)N1CC[C@@H](Nc2ccc(S(=O)(=O)NC(=O)c3ccc(N4CCN(CC5=C(c6ccc(Cl)cc6)CC(C)(C)CC5)CC4)cc3Oc3cnc4[nH]ccc4c3)cc2[N+](=O)[O-])C1 [Example 255, 4-(4-{[2-(4-chlorophenyl)-4,4-dimethylcyclohex-1-en-1-yl]methyl}piperazin-1-yl)-N-[(4-{[(3R)-1-(N,N-dimethylglycyl)pyrrolidin-3-yl]amino}-3-nitrophenyl)sulfonyl]-2-(1H-pyrrolo[2,3-b]pyridin-5-yloxy)benzamide]",9
16,"CC1(C)CCC(CN2CCN(c3ccc(C(=O)NS(=O)(=O)c4cc(F)c(F)c(OCC5(F)CCOCC5)c4)c(Oc4cnc5[nH]ccc5c4)c3)CC2)=C(c2ccc(Cl)cc2)C1 [Example 313, 4-(4-{[2-(4-chlorophenyl)-4,4-dimethylcyclohex-1-en-1-yl]methyl}piperazin-1-yl)-N-({3,4-difluoro-5-[(4-fluorotetrahydro-2H-pyran-4-yl)methoxy]phenyl}sulfonyl)-2-(1H-pyrrolo[2,3-b]pyridin-5-yloxy)benzamide]",> 1000
17,"CC1CN(c2ccc(C(=O)NS(=O)(=O)c3ccc(NCC4CCOCC4)c([N+](=O)[O-])c3)c(Oc3cnc4[nH]ccc4c3)c2)CCN1CC1=C(c2ccc(Cl)cc2)CC(C)(C)CC1 (stereo not shown) [Example 290, 4-(4-{[2-(4-chlorophenyl)-4,4-dimethylcyclohex-1-en-1-yl]methyl}-3-methylpiperazin-1-yl)-N-({3-nitro-4-[(tetrahydro-2H-pyran-4-ylmethyl)amino]phenyl}sulfonyl)-2-(1H-pyrrolo[2,3-b]pyridin-5-yloxy)benzamide]",107
18,"CC(=O)N[C@H]1CC[C@H](Nc2ccc(S(=O)(=O)NC(=O)c3ccc(N4CCN(CC5=C(c6ccc(Cl)cc6)CC(C)(C)CC5)CC4)cc3Oc3cnc4[nH]ccc4c3)cc2[N+](=O)[O-])CC1 [Example 179, Trans-N-[(4-{[4-(acetylamino)cyclohexyl]amino}-3-nitrophenyl)sulfonyl]-4-(4-{[2-(4-chlorophenyl)-4,4-dimethylcyclohex-1-en-1-yl]methyl}piperazin-1-yl)-2-(1H-pyrrolo[2,3-b]pyridin-5-yloxy)benzamide]",42.7
19,"CC1(C)CCC(CN2CCN(c3ccc(C(=O)NS(=O)(=O)c4ccc(OCC5CCOCC5)c(C#N)c4)c(Oc4cnc5[nH]ccc5c4)c3)CC2)=C(c2ccc(Cl)cc2)C1 [Example 284, 4-(4-{[2-(4-chlorophenyl)-4,4-dimethylcyclohex-1-en-1-yl]methyl}piperazin-1-yl)-N-{[3-cyano-4-(tetrahydro-2H-pyran-4-ylmethoxy)phenyl]sulfonyl}-2-(1H-pyrrolo[2,3-b]pyridin-5-yloxy)benzamide]",162
